Where “and” joins values, the source holds several entries; their conditions need not be identical. Identical values can stand only once.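 Following 48 hours of exposure in 96-well plates, responses at five concentrations were used to interpolate endpoints linearly. GI50 marks 50% less growth. TGI marks complete inhibition of growth.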
Key:
Experiment in all cases: NCI-60 cell line screen, 48 h
[1] = test system: RXF 393 renal
[2] = test system: TK-10 renal
[3] = test system: HT29 colon
[4] = test system: BT-549 breast
[5] = test system: SK-MEL-28 melanoma
[6] = test system: HCT-15 colon
[7] = test system: UACC-62 melanoma
[8] = test system: MCF7 breast
[9] = test system: IGROV1 ovarian
[10] = test system: OVCAR-3 ovarian

## COc1cc2cc(Oc3ccc(NC(=O)Nc4cc(C(F)(F)F)cc(C(F)(F)F)c4)cc3)c(C)nc2cc1OCCN1CCOCC1
[1]
  GI50: 1.12 µM
  TGI: 2.99 µM
[2]
  GI50: 3.7 µM
  TGI: 12.5 µM
[3]
  GI50: 1.75 µM
  TGI: 7.14 µM
[4]
  GI50: 1.87 µM
  TGI: 7.35 µM
[5]
  GI50: 1.8 µM
  TGI: 6.94 µM
[6]
  GI50: 1.1 µM
  TGI: 2.77 µM
[7]
  GI50: 1.67 µM
  TGI: 6.9 µM
[8]
  GI50: 1.43 µM
  TGI: 3.91 µM
[9]
  GI50: 1.54 µM
  TGI: 6.9 µM
[10]
  GI50: 1.43 µM
  TGI: 5.28 µM

## Clc1nccc2c(-c3csc(-c4c[nH]c5ccc(Br)cc45)n3)c[nH]c12
[1]
  GI50: 1.48 µM
  TGI: 3.43 µM
[2]
  GI50: 4.16 µM
  TGI: 13.4 µM
[3]
  GI50: 2.66 µM
  TGI: 8.22 µM
[4]
  GI50: 4.7 µM
  TGI: 24.4 µM
[5]
  GI50: 1.85 µM
  TGI: 4.16 µM
[6]
  GI50: 1.4 µM
  TGI: 3.33 µM
[7]
  GI50: 2.19 µM
  TGI: 4.84 µM
[8]
  GI50: 2.2 µM
  TGI: 11.6 µM
[9]
  GI50: 2.51 µM
  TGI: 15.4 µM
[10]
  GI50: 3.45 µM
  TGI: 15 µM

## O=C(CS(=O)(=O)c1nc2ccccc2nc1-c1ccccc1)Nc1ccc(F)cc1
[1]
  GI50: > 100 µM
  TGI: > 100 µM
[2]
  GI50: > 100 µM
  TGI: > 100 µM
[3]
  GI50: 33.6 µM
  TGI: > 100 µM
[4]
  GI50: 29.1 µM
  TGI: > 100 µM
[5]
  GI50: > 100 µM
  TGI: > 100 µM
[6]
  GI50: 39.9 µM
  TGI: > 100 µM
[7]
  GI50: 40.1 µM
  TGI: > 100 µM
[8]
  GI50: 43.1 µM
  TGI: > 100 µM
[9]
  GI50: 74 µM
  TGI: > 100 µM
[10]
  GI50: 30.6 µM
  TGI: > 100 µM

## CCN(CC)c1ccc(/C=C/C(=O)c2ccc(Nc3nc(Nc4ccccc4)nc(Nc4ccccc4)n3)cc2)cc1
[1]
  GI50: 2.97 µM
  TGI: 16.8 µM
[2]
  GI50: 2.39 µM
  TGI: 19.8 µM
[3]
  GI50: 20.3 µM
  TGI: > 100 µM
[4]
  GI50: 3.98 µM
  TGI: 28.1 µM
[5]
  GI50: 19.8 µM
  TGI: > 100 µM
[6]
  GI50: 2.54 µM
  TGI: > 100 µM
[7]
  GI50: 57.4 µM
  TGI: > 100 µM
[8]
  GI50: 1.99 µM
  TGI: 21.8 µM
[9]
  GI50: 4.64 µM
  TGI: > 100 µM
[10]
  GI50: 2.12 µM
  TGI: 20 µM

## c1ccc(-c2oc(-c3ccccc3)c(CN3CCCCC3)c2CN2CCCCC2)cc1
[1]
  GI50: 1.85 µM
  TGI: 5.74 µM
[2]
  GI50: 4.58 µM
  TGI: 19 µM
[3]
  GI50: 1.27 µM
  TGI: 13.3 µM
[4]
  GI50: 3.35 µM
  TGI: 13.3 µM
[5]
  GI50: 1.53 µM
  TGI: 3.02 µM
[6]
  GI50: 1.79 µM
  TGI: 10.3 µM
[7]
  GI50: 1.79 µM
  TGI: 4.35 µM
[8]
  GI50: 1.66 µM
  TGI: 6.15 µM
[9]
  GI50: 1.73 µM
  TGI: 14.4 µM
[10]
  GI50: 2.92 µM
  TGI: 10.5 µM

## COc1cc2oc(-c3cccc(C(=O)Nc4ccc(Cl)cc4)c3)cc(=O)c2c(OC)c1OC
[1]
  GI50: 1.25 µM
  TGI: 5.09 µM
[2]
  GI50: 3.22 µM
  TGI: > 100 µM
[3]
  GI50: 1.97 µM
  TGI: 6.65 µM
[4]
  GI50: 1.18 µM
  TGI: > 100 µM
[5]
  GI50: 1.84 µM
  TGI: 5.89 µM
[6]
  GI50: 1.61 µM
  TGI: > 100 µM
[7]
  GI50: 2.5 µM
  TGI: 8.65 µM
[8]
  GI50: 2.94 µM
  TGI: > 100 µM
[9]
  GI50: 2.31 µM
  TGI: > 100 µM
[10]
  GI50: 3.6 µM
  TGI: > 100 µM

## CCN1CCN(c2nc(C)cc(N(CCCNc3ccnc4cc(Cl)ccc34)Cc3ccc4c(c3)OCO4)n2)CC1
[1]
  GI50: 1.54 µM
  TGI: 3.12 µM
[2]
  GI50: 1.74 µM
  TGI: 3.21 µM
[3]
  GI50: 1.07 µM
  TGI: 2.64 µM
[4]
  GI50: 1.78 µM
  TGI: 3.7 µM
[5]
  GI50: 1.61 µM
  TGI: 3.11 µM
[6]
  GI50: 1.07 µM
  TGI: 3.16 µM
[7]
  GI50: 1.81 µM
  TGI: 3.32 µM
[8]
  GI50: 1.58 µM
  TGI: 10.2 µM
[9]
  GI50: 1.61 µM
  TGI: 5.06 µM
[10]
  GI50: 1.61 µM
  TGI: 3.96 µM

## COc1cc(/C=C2\C(=O)N(Cc3ccc(Cl)cc3)c3ccccc32)cc(OC)c1OC
[1]
  GI50: 2.35 µM
  TGI: 4.95 µM
[2]
  GI50: 3.09 µM
  TGI: 30.1 µM
[3]
  GI50: 3.27 µM
  TGI: > 30.5 µM
[4]
  GI50: 2.51 µM
  TGI: 11.6 µM
[5]
  GI50: 1.53 µM
  TGI: 3.07 µM
[6]
  GI50: 1.68 µM
  TGI: 3.43 µM
[7]
  GI50: 2.21 µM
  TGI: 10 µM
[8]
  GI50: 2.97 µM
  TGI: > 61.7 µM
[9]
  GI50: 2.73 µM
  TGI: 10.3 µM
[10]
  GI50: 1.57 µM
  TGI: 3.31 µM

## COC(=O)NC1C(C)OC(OC2C/C=C(/C)C3C=CC4C(OC5CC(OC6CCC(OC7CC(O)C(OC8CCC(O)C(C)O8)C(C)O7)C(C)O6)C(OC(C)=O)C(C)O5)C(C)CC(C)C4C3(C)/C(O)=C3/C(=O)OC4(CC(C=O)=CC(O)C4/C=C\2C)C3=O)CC1(C)[N+](=O)[O-] (configuration not stated)
[1]
  GI50: 0.158 µM
  TGI: 1.27 µM and 0.334 µM
[2]
  GI50: 0.418 µM
  TGI: 6.2 µM and 1.14 µM
[3]
  GI50: 0.352 µM
  TGI: 2.61 µM and 12.8 µM
[4]
  TGI: 2.18 µM
[5]
  GI50: 0.0311 µM
[6]
  GI50: 1.22 µM
  TGI: 3.4 µM and 4.26 µM
[7]
  GI50: 0.155 µM
  TGI: 1.47 µM and 0.319 µM
[8]
  TGI: 4.01 µM
[9]
  GI50: 1.47 µM
  TGI: 8.43 µM and 3.15 µM
[10]
  GI50: 0.484 µM
  TGI: 2.7 µM and 2.12 µM

## Oc1ccc(Cl)cc1C(c1cc(Cl)ccc1O)C(Cl)(Cl)Cl
[1]
  GI50: 1.95 µM
  TGI: 4.16 µM
[2]
  GI50: 2.27 µM
  TGI: 5.01 µM
[3]
  GI50: 2.05 µM
  TGI: 4 µM
[4]
  GI50: 1.82 µM
  TGI: 4.71 µM
[5]
  GI50: 1.8 µM
  TGI: 4.02 µM
[6]
  GI50: 1.94 µM
  TGI: 5.07 µM
[7]
  GI50: 1.59 µM
  TGI: 3.82 µM
[8]
  GI50: 2.42 µM
  TGI: 6.65 µM
[9]
  GI50: 1.63 µM
  TGI: 5.67 µM
[10]
  GI50: 1.92 µM
  TGI: 4.23 µM

## Cn1cc(/C=C\[N+](=O)[O-])c2ccccc21
[1]
  GI50: 17.6 µM
  TGI: 32.3 µM
[2]
  GI50: 78.3 µM
  TGI: > 100 µM
[3]
  GI50: 21.4 µM
  TGI: 39.8 µM
[4]
  GI50: 34.3 µM
  TGI: 78.5 µM
[5]
  GI50: 23.3 µM
  TGI: 50.3 µM
[6]
  GI50: 44.3 µM
  TGI: > 100 µM
[7]
  GI50: 83.6 µM
  TGI: > 100 µM
[8]
  GI50: 21 µM
  TGI: 80.6 µM
[9]
  GI50: 49.2 µM
  TGI: > 100 µM
[10]
  GI50: 28.1 µM
  TGI: > 100 µM

## CCOC(=O)CSc1cc(Cl)c(C)cc1S(=O)(=O)/N=C(/N=C/c1ccc([N+](=O)[O-])s1)NNC
[1]
  GI50: 22 µM
  TGI: > 100 µM
[2]
  GI50: 23 µM
  TGI: 67.6 µM
[3]
  GI50: 15 µM
  TGI: 28.2 µM
[4]
  GI50: 20.5 µM
  TGI: 46.3 µM
[5]
  GI50: 16.1 µM
  TGI: 29.7 µM
[6]
  GI50: 18.8 µM
  TGI: 47.8 µM
[7]
  GI50: 14.1 µM
  TGI: 30.8 µM
[8]
  GI50: 32.6 µM
  TGI: > 100 µM
[9]
  GI50: 42.7 µM
  TGI: > 100 µM
[10]
  GI50: 10.3 µM
  TGI: 24.7 µM
